Among the data in patent US11524960B2, “Heterobicyclic inhibitors of MAT2A and methods of use for treating cancer” (AGIOS PHARMACEUTICALS, INC., priority 2018, dated 2022) are IC50 values, retold here.

In the assay the target is T1, MAT2A homodimer (Homo sapiens, UniProt P31153).
T1 construct: inferred from Ni sepharose purification and imidazole elution; made in house; host or cells: Sf9 insect cells, recombinant baculovirus (Bac to Bac, pFASTBAC1)
T1 sequence (P31153 whole entry): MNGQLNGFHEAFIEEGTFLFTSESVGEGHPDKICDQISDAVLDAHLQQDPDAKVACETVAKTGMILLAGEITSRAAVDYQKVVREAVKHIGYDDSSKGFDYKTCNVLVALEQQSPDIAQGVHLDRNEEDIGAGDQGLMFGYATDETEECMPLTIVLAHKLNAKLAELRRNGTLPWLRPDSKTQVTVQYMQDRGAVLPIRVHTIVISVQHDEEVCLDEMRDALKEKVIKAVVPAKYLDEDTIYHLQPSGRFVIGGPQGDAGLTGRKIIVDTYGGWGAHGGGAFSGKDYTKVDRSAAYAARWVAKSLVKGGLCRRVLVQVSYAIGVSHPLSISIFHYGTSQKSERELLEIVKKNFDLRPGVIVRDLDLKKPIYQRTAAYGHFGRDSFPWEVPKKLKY
Kind of assay: Biochemical assay: inhibition of MAT2A (phosphate release, PiColorLock Gold). The conditions noted are these: MAT2A IC50 score; read-out: Enzyme Inhibition (Example 275). Here is the method: Mat2A protein was expressed by recombinant baculovirus in SF9 infected cells using the Bac to Bac system cloned into the pFASTBAC1 vector (Invitrogen, Carlsbad, Calif.). Recombinant MAT2A was isolated from the cell lysate of 150 g of infected cells using HP Ni sepharose column chromatography. Recombinant MAT2A homodimer was eluted with 250 and 500 mM imidazole, and fractions containing MAT2A were identified by sodium dodecyl sulfate polyacrylamide gel electrophoresis and pooled.
For determination of the inhibitory potency of compounds against the MAT2A homodimer, protein was diluted to […] in assay buffer (50 mM Tris, pH 8.0, 50 mM KCl, 15 mM MgCl2, 0.3 mM EDTA, 0.005% [w/v] bovine serum albumin [BSA]). Test compound was prepared in 100% dimethyl sulfoxide (DMSO) at 50× the desired final concentration. […] of compound dilution was added to 40 μL of enzyme dilution and the mixture was allowed to equilibrate for 60 minutes at 25° C. The enzymatic assay was initiated by the addition of 10 μL of substrate mix (500 μM ATP, pH 7.0, 400 μM L-methionine in 1× assay buffer), and the mixture was incubated for a further 60 minutes at 25° C. The reaction was halted and the liberated phosphate released by the enzyme in stoichiometric amounts by the production of S-adenosyl methionine (SAM) was measured using the PiColorLock Gold kit (Innova Biosciences, UK). Absolute product amounts were determined by comparison to a standard curve of potassium phosphate buffer, pH 8.0.
With `COc1ccc(-n2cc3cnc(NCC4CC4)nc3c(-c3ccc(Br)cc3)c2=O)cc1` [Example 190, 8-(4-bromophenyl)-2-((cyclopropylmethyl)amino)-6-(4-methoxyphenyl)pyrido[4,3-d]pyrimidin-7(6H)-one], the IC50 is less than 100 nM.
With `CCCNc1ncc2cn(-c3ccc(OC)cc3)c(=O)c(-c3ccc(Br)cc3)c2n1` [Example 191, 8-(4-bromophenyl)-6-(4-methoxyphenyl)-2-(propylamino)pyrido[4,3-d]pyrimidin-7(6H)-one], the IC50 was less than 100 nM.
For `COc1ccc(-c2c(=O)n(-c3ccc(=O)n(C)c3)cc3cnc(NCC(F)(F)F)nc23)cc1` [Example 194, 8-(4-methoxyphenyl)-6-(1-methyl-6-oxo-1,6-dihydropyridin-3-yl)-2-((2,2,2-trifluoroethyl)amino)pyrido[4,3-d]pyrimidin-7(6H)-one], the IC50 lay in the range of 100 to 1000 nM.
With `COc1ccc(-n2cc3cnc(NCC(F)(F)F)nc3c(-c3ccc(OC(F)(F)F)cc3)c2=O)cc1` [Example 196, 6-(4-methoxyphenyl)-2-((2,2,2-trifluoroethyl)amino)-8-(4-(trifluoromethoxy)phenyl)pyrido[4,3-d]pyrimidin-7(6H)-one] the figure was less than 100 nM; with `COc1ccc(-n2cc3cnc(NCC(F)(F)F)nc3c(-c3ccc(C(F)(F)F)cc3)c2=O)cc1` [Example 197, 6-(4-methoxyphenyl)-2-((2,2,2-trifluoroethyl)amino)-8-(4-(trifluoromethyl)phenyl)pyrido[4,3-d]pyrimidin-7(6H)-one], 100 to 1000 nM; with `COc1ccc(-n2cc3cnc(NCC(F)(F)F)nc3c(-c3ccc(C4CCC4)cc3)c2=O)cc1` [Example 199, 8-(4-cyclobutylphenyl)-6-(4-methoxyphenyl)-2-((2,2,2-trifluoroethyl)amino)pyrido[4,3-d]pyrimidin-7(6H)-one], 1000 to 10000 nM.
Take `O=c1c(-c2ccc(OCC(F)F)cc2)c2nc(NCC(F)(F)F)ncc2cn1-c1ccc2ncccc2c1` [Example 201, 8-(4-(2,2-difluoroethoxy)phenyl)-6-(quinolin-6-yl)-2-((2,2,2-trifluoroethyl)amino)pyrido[4,3-d]pyrimidin-7(6H)-one]: the IC50 is 100 to 1000 nM.
With `COc1ccc(-n2cc3cnc(NCC(F)(F)F)nc3c(-c3ccc(N4CCC4)cc3)c2=O)cc1` [Example 204, 8-(4-(azetidin-1-yl)phenyl)-6-(4-methoxyphenyl)-2-((2,2,2-trifluoroethyl)amino)pyrido[4,3-d]pyrimidin-7(6H)-one] the figure was 100 to 1000 nM; with `COc1ccc(-c2c(=O)n(-c3cnoc3)cc3cnc(NCC(F)(F)F)nc23)cc1` [Example 207, 6-(isoxazol-4-yl)-8-(4-methoxyphenyl)-2-((2,2,2-trifluoroethyl)amino)pyrido[4,3-d]pyrimidin-7(6H)-one], 100 to 1000 nM.
As for `COc1ccc(-c2c(=O)n(-c3cn[nH]c3)cc3cnc(NCC(F)(F)F)nc23)cc1` [Example 208, 8-(4-methoxyphenyl)-6-(H-pyrazol-4-yl)-2-((2,2,2-trifluoroethyl)amino)pyrido[4,3-d]pyrimidin-7(6H)-one], the IC50 is less than 100 nM.
`Cn1cc2cc(-n3cc4ccc(NCC(F)(F)F)nc4c(-c4ccc(CC(F)F)cc4)c3=O)ccc2n1` [Example 214, 8-(4-(2,2-difluoroethyl)phenyl)-6-(2-methyl-2H-indazol-5-yl)-2-((2,2,2-trifluoroethyl)amino)-1,6-naphthyridin-7(6H)-one]: the IC50 is less than 100 nM.
`COc1ccc(-n2cc3ccc(NCC(F)(F)F)nc3c(-c3ccc(Cl)cc3)c2=O)cc1` [Example 238, 8-(4-chlorophenyl)-6-(4-methoxyphenyl)-2-(2,2,2-trifluoroethylamino)-1,6-naphthyridin-7(6H)-one]: the IC50 was less than 100 nM.
With `COc1ccc(-n2cc3cnc(OCC(F)(F)F)nc3c(-c3ccc(Br)cc3)c2=O)cc1` [Example 261, 8-(4-bromophenyl)-6-(4-methoxyphenyl)-2-(2,2,2-trifluoroethoxy)pyrido[4,3-d]pyrimidin-7(6H)-one] the figure was less than 100 nM.
